Laboratory results taken from patent publication US6133279A, “Therapeutic agents for renal diseases and organ preservatives” (Chugai Seiyaku Kabushiki Kaisha, priority 1996, dated 2000).
Where two headings read alike, the source gives them in different places.

System: porcine kidney-derived LLC-PK1 cells
Test: Protective effect against oxidized LDL-induced injury of porcine kidney-derived LLC-PK1 cells (1)
Format: cell-based
Conditions: Sus scrofa, LLC-PK1, 6 h, mean ± standard deviation, read-out: Cytoprotection rate (%)
[1] = compound added 16 hours before adding oxidized LDL
[2] = compound added immediately before adding oxidized LDL

## CCCCCC1(CCCCC)Cc2c(cc(C(C)(C)C)c(O)c2C(C)(C)C)O1 [Example 36, 4,6-Di-t-butyl-2,2-di-n-pentyl-5-hydroxy-2,3-dihydrobenzofuran]
[1]
  inhibition at 0.1 µM: -1 ± 7.4%
  inhibition at 1 µM: 92.2 ± 3.7%
  inhibition at 10 µM: 97.7 ± 1.1%
[2]
  inhibition at 0.1 µM: -3.2 ± 1.1%
  inhibition at 1 µM: 0.6%
  inhibition at 10 µM: 78.8 ± 3.6%
